This is an account of results in patent US20070207120A1, “Selective Killing Of Cancer Cells By Induction Of Acetyltransferase Via Tnf-Alpha And Il-6” (priority 2004, published 2007).

What all share (format): cell-based, human
In assay [1] the test system is transformed WI38 VA13 cells. As to the kind of experiment: Cytokine and deacetylase inhibitor treatment, transformed cells. As to conditions: for efficacy in (selective) cell killing of transformed cells: alone and in combination with cytokine treatment, butyric acid 5 mM, TSA, CBHA 2.5 μg/ml, SAHA 5 μg/ml. As to the method:
(§1) Human cells WI38 (ATCC number CCL-75), WI38 VA13 (ECACC number 85062512), SaOS2 (ECACC number 89050205), U20S (ATCC number HTB-96), HeLa (CCL-2), HEK 293 (ATCC number CRL-1573) and Hs68 (ATCC number CRL-1635) were obtained from ATCC, ECACC or CR-UK cell services. All cells were cultured as monolayers in 10% foetal bovine serum in Dulbecco's minimal essential medium at 37° C. in 5% CO2, except SaOS2 cells which were cultured in McCoy's 5a medium supplemented with 1.5 mM L-glutamine and 15% foetal bovine serum. VA13 cells are WI38 primary fibroblasts transformed with SV40 virus and therefore share the same genetic background. To measure cell viability and total cell number, cells in suspension and adherent cells were collated and analysed by resuspending with a known concentration of CaliBRITE unlabelled beads (Becton Dickinson) plus propidium iodide and counting the number of live and dead cells per 3000 beads using a FACSCalibur flow cytometer (Becton Dickinson). Alternatively, an automated trypan blue assay using a Vi-Cell XR Cell Viability Analyzer (Beckman Coulter) was employed. Cells were treated with Interleukin 6 (20 ng/ml) for 24 hours, followed by addition of antibody 80M2 (1 μg/ml), which modulates TNFα receptor 2, and TNFα (10 ng/ml). TNFα was added to the cell culture medium 30 minutes after addition of 80M2. […] All agents were added to the cell culture medium in liquid form. […] For cytokine treatment in combination with deacetylase inhibitors, cells were harvested and counted 48 hours after addition of deacetylase inhibitor.

The next assay deals with normal WI38 cells. As to the kind of experiment: Cytokine and deacetylase inhibitor treatment, normal cells. Particulars: for cell death in normal cells: in combination with cytokine treatment (TSA 400 nM; SAHA 5 μg/ml); for effect on / killing of normal WI38 cells: TSA, CBHA 2.5 μg/ml. The method, then: as §1
A further assay deals with MCM3AP. As to the kind of experiment: Western blot of MCM3AP expression after cytokine treatment. Particulars: HEK 293 cells; IL6 20 ng/ml, 24 hours later TNFα 10 ng/ml and 80M2 1 μg/ml; following three days. As to the method: HEK 293 cells (ATCC number CRL-1573) and Hs68 cells (ATCC number CRL-1635) were cultured as monolayers in 10% foetal calf serum in Dulbecco's minimal essential medium at 37° C. in 10% or 5% CO2 respectively, according to recommendations by the American Tissue Culture Collection. Stable cell lines of HEK 293 cells expressing inducible wild-type or mutant MCM3AP were made by stable transfection of vectors previously described by Takei et al. (2,3). Expression of MCM3AP was induced in these stable cell lines by treatment with doxycycline.
Exponentially growing cells were harvested and fractionated into soluble and structure-bound fractions. Cells were harvested by scraping adherent cells, pelleted by centrifugation at 200 g for 4 minutes and washed in cold PBS. The cell pellet was resuspended in cold hypotonic buffer (10 mM HEPES-KOH pH 7.3, 5 mM KCl, 1.5 mM MgCl2, 1 mM DTT, 1% NP40 and protease inhibitors) and incubated on ice for 15 minutes. Cells were centrifuged at 10,000 rpm for 5 minutes and the supernatant stored at −80° C. as the soluble protein fraction. […]
Samples were separated by 7.5% SDS-PAGE and transferred to PVDF membrane at a constant voltage of 10V for 1 hour. […] The bound antibodies were detected with peroxidase-conjugated secondary antibody (Amersham Biosciences) and protein bands visualised by the […] method using ECL or ECLplus (Amersham Biosciences). […]
Background: In western blotting, separated proteins are transferred to a membrane and probed.

The next assay relates to HEK 293 cells. Put plainly: Apoptosis (annexin V) and attached cell number after cytokine treatment. Particulars: HEK 293 attached cells; 24 hours after addition of TNFα and 80M2. The method, then:
Cells were treated with Interleukin 6 (20 ng/ml) for 24 hours, followed by addition of antibody 80M2 (1 μg/ml), which modulates TNFα receptor 2, and TNFα (10 ng/ml). TNFα was added to the cell culture medium 30 minutes after addition of 80M2. All agents were added to the cell culture medium in liquid form. Cells were harvested after the indicated number of days of treatment, where ‘time zero’ corresponds to the point of addition of Interleukin 6.
Cells were assayed for apoptosis by Annexin V staining (Oncogene, Annexin V-FITC or Annexin V-Biotin apoptosis detection kit) and TUNEL assay (BD Biosciences, ApoAlert DNA fragmentation assay kit). Cells were assayed for Annexin V and TUNEL assay by flow cytometry, according to manufacturer's instructions. Attached cells were harvested and counted using a haemocytometer to give total attached cell number.
We examined the cell fate outcome of upregulating MCM3AP by cytokine treatment in HEK 293 cells. Treatment of HEK 293 cells with the same combination of cytokines that upregulates MCM3AP induces cell death by apoptosis (FIG. 4). Cells were treated with IL6 for 24 hours, followed by addition of TNFα and antibody 80M2. Attached cells were assayed for apoptosis and total cell number 24 hours and 36 hours later respectively.

Regarding `CCCC(=O)O` [butyric acid], in assay [1], the “efficacy in (selective) cell killing of transformed cells” value is recorded as “least effective”.

For `O=C(CCCCCCC(=O)Nc1ccccc1)NO` [SAHA, suberoylanilide hydroxamic acid], in the assay with normal WI38 cells, the “cell death in normal cells” value was roughly 40%.

For the molecule `O=C(/C=C/c1cccc(C(=O)NO)c1)NO` [CBHA, cinnamic acid bishydroxamic acid], the “effect on / killing of normal WI38 cells” value in the assay with normal WI38 cells is listed as “did not kill primary WI38 cells above background levels”.

On to TNFα, for which the “MCM3AP protein expression (western blot)” value with MCM3AP is recorded as “does not stimulate MCM3AP significantly”. In addition, the “apoptosis (annexin-V staining)” value with HEK 293 cells is listed as “markedly reduced”.

On to IL6: cytokine interleukin-6, for which the “MCM3AP protein expression (western blot)” value in the assay on MCM3AP is given as “does not stimulate MCM3AP significantly”.

Regarding `CC(/C=C/C(=O)NO)=C\[C@@H](C)C(=O)c1ccc(N(C)C)cc1` [TSA, trichostatin A], the “effect of TSA at lower concentrations” value in assay [1] (100 nM, 200 nM, 400 nM TSA) is given as “concentration dependent”. The “efficacy in (selective) cell killing of transformed cells” value in assay [1] was “efficient in selectively killing transformed cells”. Moreover, the transformed cells killed in assay [1] (three days of cytokine treatment in combination with deacetylase inhibitor (TSA 400 nM; CBHA 2.5 μg/ml; SAHA 5 μg/ml)) was 80-90%. Moreover, the “live cell number over time” value with normal WI38 cells (400 nM TSA in combination with cytokine treatment, compare with t=0 value) is reported as “reduction in live cell number”. Further, in the assay with normal WI38 cells, the “effect on / killing of normal WI38 cells” value is “minimal effect” and the “cell death in normal cells” value is listed as roughly 20%.
